{"source": "patent US20240277705A1", "about": "“DOSAGE REGIMENS FOR ECUBECTEDIN” (PHARMA MAR S.A., priority 2021, published 2024)", "key": {"MEXF 462NL (melanoma)": {"tested_on": "MEXF 462NL (melanoma)", "assay": "Propidium iodide monolayer cell proliferation assay, MEXF 462NL", "format": "cell-based, human", "conditions": "MEXL 462NL", "experimental": "Cell proliferation assay: A modified propidium iodide (PI) based monolayer assay was used to assess the anti-cancer activity of the compounds (Dengler WA, Schulte J, Berger DP, Mertelsmann R, Fiebig HH, Anti-Cancer Drugs 1995, 6: 522-532). Briefly, cells were harvested from exponential phase cultures, counted and plated in 96 well flat-bottom microtiter plates at a cell density of 4,000 to 30,000 cells/well dependent on the cell line's growth rate. After a 24 h recovery period, to allow the cells to resume exponential growth, 10 μl of culture medium (4 control wells/cell line/plate) or of culture medium with test compounds were added. PM14 was applied at ten concentrations in half-log increments in duplicates up to 3.16 pM and treatment continued for four days. […] After an incubation period of 1-2 hours at room temperature, fluorescence (FU) was measured using the Enspire Multimode Plate Reader (excitation A=530 nm, emission A=620 nm) to quantify the amount of attached viable cells.\nIC50 and IC70 values were calculated by 4 parameter non-linear curve fit using Oncotest Warehouse Software. […]\nIC50 values were determined as described in Example 2, but using the following human cancer cell lines: • MEXF 276L (melanoma) • MEXF 462NL (melanoma) • MEXF 1341L (melanoma)"}, "[1]": {"tested_on": "RXF 393 (renal carcinoma)", "assay": "MTT cell viability assay, RXF 393", "format": "cell-based", "conditions": "Homo sapiens, RXF 393, 72 h; read-out: GI50, M (geometric mean, N = 3)", "from_the_text": "Cell lines and cell culture: The following human cancer cell lines have been used in this example (the collection code and the tissue of origin are shown in brackets): • RXF 393 (NCI) (renal carcinoma) • Caki-1 (ATCC HTB-46) (kidney clear cell carcinoma)\nCell lines were obtained from the American Type Culture Collection (ATCC) or the National Cancer Institute (NCI). Cells were maintained in the appropriate culture medium, namely: • RPMI for RXF 393 • McCoy's 5A for Caki-1\nAll media were supplemented with 10% FBS, 2 mM L-Glutamine and 100 units/mL of penicillin-streptomycin.\nCell viability assay: To assess the antiproliferative activity of the compounds a colorimetric assay based on 3-(4,5-Dimethylthiazol-2-yl)-2,5-diphenyltetrazolium bromide (MTT) reduction was used. […] Culture medium was then removed and 100 μL of neat DMSO added to each well to dissolve the formazan product into a coloured solution whose absorbance at 540 nm was finally measured in a PolarStar Omega microplate multilabel reader (BMG Labtech, Ortenberg, Germany). […]\nGI50 is finally used as reference value. […] To define a significant (ca. 70%) confidence interval for the geometric mean, its value must be multiplied and divided by the corresponding geometric standard deviation (GSD) which was also calculated. […]"}, "WM-266-4 (Melanoma)": {"tested_on": "WM-266-4 (Melanoma)", "assay": "MTT cell viability assay, WM-266-4", "format": "cell-based", "conditions": "Homo sapiens", "experimental": "Cell viability assay: To assess the antiproliferative activity of the compounds a colorimetric assay based on 3-(4,5-Dimethylthiazol-2-yl)-2,5-diphenyltetrazolium bromide (MTT) reduction was used. […] An appropriate number of cells, to reach a final cell density in the assay ranging from 5,000 to 15,000 cells per well depending on the cell line, were seeded in 96-well plates and allowed to stand in culture medium for 24 h at 37° C. under 5% CO2 and 98% humidity. Then, compounds or DMSO in culture medium were added to reach a final volume of […] and the intended compound concentration in a range covering 10 serial 2/5 dilutions starting from […] (10 μg/mL for doxorubicin) in 1% (v/v) DMSO. At this point a set of “time zero control plates” treated with 1% (v/v) DMSO were processed with MTT as described below. The rest of the plates were incubated during 72 h under the aforementioned environmental conditions. […] Culture medium was then removed and 100 μL of neat DMSO added to each well to dissolve the formazan product into a coloured solution whose absorbance at 540 nm was finally measured in a PolarStar Omega microplate multilabel reader (BMG Labtech, Ortenberg, Germany). […]\nGI50 values were determined as described in Example 1, but using the following human cancer cell line: • WM-266-4 (ATCC@ CRL-1676) (Melanoma) […]"}}, "data": [{"compound": "COc1c(C)cc2c(c1O)[C@@H]1[C@@H]3[C@@H]4SC[C@]5(N[C@H](CO)Cc6c5[nH]c5ccccc65)C(=O)OC[C@@H](c5c6c(c(C)c(OC(C)=O)c54)OCO6)N3[C@@H](O)[C@H](C2)N1C", "note": "[PM14, ECUBECTEDIN]", "values": [{"measurement": "IC50", "setting": "MEXF 462NL (melanoma); Homo sapiens, MEXF 462NL, read-out: IC50, μM (geometric mean)", "value": 0.0001, "unit": "µM"}, {"measurement": "IC70, μM (geometric mean)", "setting": "MEXF 462NL (melanoma)", "value": 0.0001, "unit": "µM"}, {"measurement": "GI50", "setting": "[1]", "value": 0.621, "unit": "nM"}, {"measurement": "GI50", "setting": "WM-266-4 (Melanoma)", "value": 1.94, "unit": "nM"}]}]}
